Calls of active or inactive are those of the source. How the calls were made is not given here.
System: CCRIS mutagenicity, Ames/micronucleus/aberration tests
Experiment: CCRIS mutagenicity studies
[1] = Test System: AMES SALMONELLA TYPHIMURIUM, Strain/Indicator: TA98, Metabolic Activation: NONE, Method: PREINCUBATION
[2] = Test System: AMES SALMONELLA TYPHIMURIUM, Strain/Indicator: TA100, Metabolic Activation: RAT, LIVER, S-9, AROCLOR 1254, Method: STANDARD PLATE

## O=C(O)c1ccccc1[N+](=O)[O-]
Test System: AMES SALMONELLA TYPHIMURIUM, Strain/Indicator: TA97, Metabolic Activation: HAMSTER, LIVER, S-9, AROCLOR 1254 (10%), Method: PREINCUBATION
  mutagenic call: inactive; negative
Test System: AMES SALMONELLA TYPHIMURIUM, Strain/Indicator: TA97, Metabolic Activation: NONE, Method: PREINCUBATION
  mutagenic call: inactive; negative
Test System: AMES SALMONELLA TYPHIMURIUM, Strain/Indicator: TA97, Metabolic Activation: RAT, LIVER, S-9, AROCLOR 1254 (10%), Method: PREINCUBATION
  mutagenic call: inactive; negative
Test System: AMES SALMONELLA TYPHIMURIUM, Strain/Indicator: TA98, Metabolic Activation: HAMSTER, LIVER, S-9, AROCLOR 1254 (10%), Method: PREINCUBATION
  mutagenic call: inactive; negative
[1]
  mutagenic call: active; positive
Test System: AMES SALMONELLA TYPHIMURIUM, Strain/Indicator: TA98, Metabolic Activation: RAT, LIVER, S-9, AROCLOR 1254 (10%), Method: PREINCUBATION
  mutagenic call: inactive; negative
Test System: AMES SALMONELLA TYPHIMURIUM, Strain/Indicator: TA98, Metabolic Activation: RAT, LIVER, S-9, KANECHLOR 500, Method: PREINCUBATION
  mutagenic call: active; positive
Test System: AMES SALMONELLA TYPHIMURIUM, Strain/Indicator: TA100, Metabolic Activation: HAMSTER, LIVER, S-9, AROCLOR 1254 (5 OR 30%), Method: PREINCUBATION
  mutagenic call: inactive; negative
Test System: AMES SALMONELLA TYPHIMURIUM, Strain/Indicator: TA100, Metabolic Activation: HAMSTER, LIVER, S-9, AROCLOR 1254, FLAVIN MONONUCLEOTIDE, Method: PREINCUBATION
  mutagenic call: inactive; negative
Test System: AMES SALMONELLA TYPHIMURIUM, Strain/Indicator: TA100, Metabolic Activation: HAMSTER, LIVER, S-9, AROCLOR 1254, Method: PREINCUBATION
  mutagenic call: inactive; negative
Test System: AMES SALMONELLA TYPHIMURIUM, Strain/Indicator: TA100, Metabolic Activation: RAT, LIVER, S-9, AROCLOR 1254 (5 OR 30%), Method: PREINCUBATION
  mutagenic call: inactive; negative
Test System: AMES SALMONELLA TYPHIMURIUM, Strain/Indicator: TA100, Metabolic Activation: RAT, LIVER, S-9, AROCLOR 1254 (10%), Method: PREINCUBATION
  mutagenic call: inactive; negative
Test System: AMES SALMONELLA TYPHIMURIUM, Strain/Indicator: TA100, Metabolic Activation: RAT, LIVER, S-9, AROCLOR 1254, FLAVIN MONONUCLEOTIDE, Method: PREINCUBATION
  mutagenic call: inactive; negative
[2]
  mutagenic call: inactive; negative
Test System: AMES SALMONELLA TYPHIMURIUM, Strain/Indicator: TA100, Metabolic Activation: RAT, LIVER, S-9, KANECHLOR 500, Method: PREINCUBATION
  mutagenic call: active; positive
Test System: AMES SALMONELLA TYPHIMURIUM, Strain/Indicator: TA1535, Metabolic Activation: HAMSTER, LIVER, S-9, AROCLOR 1254 (10%), Method: PREINCUBATION
  mutagenic call: inactive; negative
Test System: AMES SALMONELLA TYPHIMURIUM, Strain/Indicator: TA1535, Metabolic Activation: NONE, Method: PREINCUBATION
  mutagenic call: inactive; negative
Test System: AMES SALMONELLA TYPHIMURIUM, Strain/Indicator: TA1535, Metabolic Activation: RAT, LIVER, S-9, AROCLOR 1254 (10%), Method: PREINCUBATION
  mutagenic call: inactive; negative
Test System: AMES SALMONELLA TYPHIMURIUM, Strain/Indicator: TA1537, Metabolic Activation: NONE, Method: PREINCUBATION
  mutagenic call: inactive; negative
Test System: AMES SALMONELLA TYPHIMURIUM, Strain/Indicator: TA1538, Metabolic Activation: NONE, Method: PREINCUBATION
  mutagenic call: active; positive

## CC(=O)OC[C@H]1OC(OC(C)=O)[C@H](NC(=O)N(C)N=O)[C@@H](OC(C)=O)[C@@H]1OC(C)=O (stereo partly specified)
Test System: CHINESE HAMSTER V-79, Strain/Indicator: V-79/8-AZAGUANINE, Metabolic Activation: NONE, Method: STANDARD PLATE
  mutagenic call: active; positive

## CCCCCCN(N=O)/C(N)=N/[N+](=O)[O-]
Test System: AMES SALMONELLA TYPHIMURIUM, Strain/Indicator: TA1535, Metabolic Activation: NONE, Method: STANDARD PLATE
  mutagenic call: active; positive

## Nc1ccc(Oc2cccc(Oc3ccc(N)cc3)c2)cc1
[1]
  mutagenic call: inactive; negative
Test System: AMES SALMONELLA TYPHIMURIUM, Strain/Indicator: TA98, Metabolic Activation: RAT, LIVER, S-9, PCB, Method: PREINCUBATION
  mutagenic call: active; positive
Test System: AMES SALMONELLA TYPHIMURIUM, Strain/Indicator: TA100, Metabolic Activation: NONE, Method: PREINCUBATION
  mutagenic call: inactive; negative
Test System: AMES SALMONELLA TYPHIMURIUM, Strain/Indicator: TA100, Metabolic Activation: RAT, LIVER, S-9, PCB, Method: PREINCUBATION
  mutagenic call: active; positive

## CC(=O)c1c(O)cc(O)c2c1C(=O)c1cc(O)cc(O)c1C2=O
Test System: AMES SALMONELLA TYPHIMURIUM, Strain/Indicator: TA98, Metabolic Activation: NONE, Method: STANDARD PLATE
  mutagenic call: inactive; negative
Test System: AMES SALMONELLA TYPHIMURIUM, Strain/Indicator: TA98, Metabolic Activation: RAT, LIVER, S-9, AROCLOR 1254, Method: STANDARD PLATE
  mutagenic call: inactive; negative
Test System: AMES SALMONELLA TYPHIMURIUM, Strain/Indicator: TA100, Metabolic Activation: NONE, Method: STANDARD PLATE
  mutagenic call: inactive; negative
[2]
  mutagenic call: inactive; negative
Test System: AMES SALMONELLA TYPHIMURIUM, Strain/Indicator: TA1537, Metabolic Activation: RAT, LIVER, S-9, AROCLOR 1254, Method: STANDARD PLATE
  mutagenic call: inactive; negative

## CSCCl
Test System: AMES SALMONELLA TYPHIMURIUM, Strain/Indicator: TA98, Metabolic Activation: NONE, Method: SPOT TEST
  mutagenic call: inactive; negative
Test System: AMES SALMONELLA TYPHIMURIUM, Strain/Indicator: TA98, Metabolic Activation: RAT, LIVER, S-9, AROCLOR 1254, Method: SPOT TEST
  mutagenic call: inactive; negative
Test System: AMES SALMONELLA TYPHIMURIUM, Strain/Indicator: TA100, Metabolic Activation: NONE, Method: SPOT TEST
  mutagenic call: active; positive
Test System: AMES SALMONELLA TYPHIMURIUM, Strain/Indicator: TA100, Metabolic Activation: RAT, LIVER, S-9, AROCLOR 1254, Method: SPOT TEST
  mutagenic call: active; positive
Test System: AMES SALMONELLA TYPHIMURIUM, Strain/Indicator: TA102, Metabolic Activation: RAT, LIVER, S-9, AROCLOR 1254, Method: SPOT TEST
  mutagenic call: active; positive

Reference: PubChem BioAssay AID1259407 (Chemical Carcinogenesis Research Information System (CCRIS), 2018)
